{"source": "patent US6750378B2", "about": "“Maize H3C4 promoter combined with the first intron of rice actin, chimeric gene comprising it and transformed plant” (Rhone-Poulenc Agro, priority 1997, dated 2004)", "key": {"[1]": {"system": "maize lines transformed according to the invention (H3C4 promoter + first intron of rice actin)", "assay": "Comparative study of herbicide tolerance, maize lines transformed according to the invention (rice actin intron)", "type": "in vivo", "conditions": "20 maize lines, spraying 200 g of active material per hectare (600 μg per tub)", "method": "(§1) 800 ml of Fontainebleau sand are placed in a tub of sides 15×20 cm. These tubs are then sprinkled with water and kept moist by supplying a nutrient solution consisting of 5 ml of Quinoligo (Quinoline) per liter of water. Twenty maize seeds are placed in the tubs, which are then treated with isoxaflutole by spraying at a rate of 100 g of active material per hectare (300 μg of active material per tub). The tubs are then cultured in a greenhouse. The phytotoxicity is determined 14 [lacuna] after planting. […] A comparative study was carried out with 20 maize lines transformed according to the invention and 20 maize lines transformed with a corresponding gene for which the sequence encoding the first intron of rice actin has been replaced with the sequence encoding the maize adh I intron. After treating by spraying very high doses of isoxafutole at a rate of 200 g of active material per hectare (600 μg of active material per tub), the following results are obtained: […]"}, "[2]": {"system": "maize lines transformed with corresponding gene with maize adh I intron", "assay": "Comparative study of herbicide tolerance, maize lines transformed with the corresponding gene with maize adh I intron", "type": "in vivo", "conditions": "20 maize lines, spraying 200 g of active material per hectare (600 μg per tub)", "method": "as §1"}}, "data": [{"smiles": "CS(=O)(=O)c1cc(C(F)(F)F)ccc1C(=O)c1cnoc1C1CC1", "note": "[isoxaflutole]", "values": [{"measurement": "lines tolerant", "setting": "[1]", "result": "8/20"}, {"measurement": "lines tolerant", "setting": "[2]", "result": "3/20"}]}]}
